In publication PMC5403886, “A Novel Spiro-Heterocyclic Compound Identified by the Silkworm Infection Model Inhibits Transcription in Staphylococcus aureus” (Frontiers in Microbiology, 2017):

Biological target: T1, SigA (primary sigma factor of RNA polymerase) (Staphylococcus aureus, UniProt P0A0J0)
T1 construct: His-tagged recombinant SigA (sigA from S. aureus RN4220, pET28a)
Test: pull-down with His-tagged SigA on cobalt magnetic beads, HPLC of eluted compound
Format: binding

T1 sequence (P0A0J0 whole entry): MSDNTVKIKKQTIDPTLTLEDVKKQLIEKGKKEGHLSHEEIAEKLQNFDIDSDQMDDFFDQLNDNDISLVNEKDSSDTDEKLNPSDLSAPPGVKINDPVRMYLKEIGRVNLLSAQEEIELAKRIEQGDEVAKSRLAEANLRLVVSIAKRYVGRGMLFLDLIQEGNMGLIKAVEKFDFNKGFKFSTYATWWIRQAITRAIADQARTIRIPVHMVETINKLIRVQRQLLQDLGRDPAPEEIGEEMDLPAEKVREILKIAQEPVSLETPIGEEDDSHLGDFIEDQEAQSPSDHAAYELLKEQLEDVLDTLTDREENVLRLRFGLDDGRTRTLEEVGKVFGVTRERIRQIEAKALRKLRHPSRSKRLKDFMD

CCCNC(=O)N1CCC2(CC1)Nc1cc(F)ccc1-n1cccc12 [GPI0363, 7-fluoro-N-propylspiro[5H-pyrrolo[1,2-a]quinoxaline-4,4′-piperidine]-1′-carboxamide]
pull-down with His-tagged SigA on cobalt magnetic beads, HPLC of eluted compound: The peak of GPI0363 appeared when mixed with SigA whereas the peak was not observed when SigA was omitted
